Measurements as given in US12083115B2, “Methods for treating neurological symptoms associated with lysosomal storage diseases” (Genzyme Corporation, priority 2020, dated 2024).
Where two headings read alike, the source gives them in different places.

Experiments:
Type in all cases: in vivo, human
[1] = test system: glucosylsphingosine (lyso-GL1); assay: Clinical study in GD-3 patients: lyso-GL1 in plasma and CSF; settings: for Lyso-GL-1 (% change): 52-weeks compared to baseline; for Lyso-GL-1 concentration, 52-weeks (mean) / Lyso-GL-1 concentration, 52-weeks: 15 mg/day + imiglucerase; for Lyso-GL-1 concentration, 52-weeks: all six patients
Method: The endpoint assessments are related to safety, CSF biomarkers, pharmacokinetics/pharmacodynamics, systemic disease, and neuroimaging and neurological function (CNS/neurological manifestations).
(§1) During the study patients were evaluated for safety and tolerability, CSF and plasma biomarkers (glucosylceramide, GL-1; glucosylsphingosine, lyso-GL1), pharmacokinetics, markers for systemic disease (spleen and liver volume measured by magnetic resonance imaging (MRI), platelet count, hemoglobin levels), indicia of interstitial lung disease (high resolution pulmonary computed tomography (CT)), and horizontal saccadic eye movement. In addition, exploratory biomarkers were quantified in CSF of GD3 patients: ceramide (the precursor of GL-1), chitotriosidase (CHITO), GM3, and GPNMB. Symptoms of ataxia were measured using the SARA scale, neurological symptoms were measured using the trail making test, and functional MRI was used to assess neural connectivity in the brain.
Over all six GD3 patients, plasma and CSF GL-1 and lyso-GL-1 concentrations were as follows:
At Week 52, the CSF lyso-GL1 concentrations for Patient 5 were above the upper limit of quantification (ULOQ; >100 pg/mL), and biomarker results for CSF lyso-GL1 were therefore imputed using the exact ULOQ values. […] Mean results for the other study subjects were as follows (N=10; Patient 5 excluded): […]

[2] = test system: adult patients with Gaucher disease Type 3; assay: Clinical study in GD-3 patients: resting-state fMRI connectivity
Method: as §1
Neurological function was further evaluated using functional magnetic resonance imaging (fMRI). Patient 2 was excluded because no fMRI data was collected at the Week 52 session. Resting-state fMRI screening sessions were performed at baseline screening, Week 26, and Week 52 visits. Connectivity estimates from four subjects (Patients 1, 3, 4, and […]) were entered into second-level analyses as a “compliant” group. Patient 5 was isolated due to likely non-compliance with study medication, as described above. Analyses were performed as described elsewhere (Smith et al. [2009]).
Spatial analysis of the connectivity between different anatomic regions of the brain is performed to define a correlation coefficient for regressed voxelwise mean intensity.
The results are summarized in the table below for all patients for RSNs 3 and 6 (RSNs 4 and 8 are not included) for the change in correlation coefficient between baseline and 52 weeks (as noted supra, Patient 2 is excluded because of lack of data).

[3] = Study 1 Part 1: ascending single-dose PK in healthy men; settings: for Tmax / AUC(0-inf) / AUC(0-t) / Cmax / Vd/F / half-life: male, human, plasma, oral; for Tmax: N = 6, read-out: tmax, median
From the text: Study 1 was a 2-part single-center trial in healthy adult male volunteers.
Part 1 of the study enrolled and randomized 55 healthy men (placebo, n=14; 2-, 5-, 15, 25-, 50, and 100-mg doses, n=6 each; 150-mg dose, n=5). Eight healthy men participated in Part 2. […]

With `CC(C)(NC(=O)O[C@@H]1CN2CCC1CC2)c1csc(-c2ccc(F)cc2)n1` [Compound 2, (S)-quinuclidin-3-yl 2-(2-(4-fluorophenyl)thiazol-4-yl)propan-2-ylcarbamate] the “Lyso-GL-1 (% change)” value ([1]; CSF Concentration, N = 6, 15 mg/day + imiglucerase) was −55.9%, the “Lyso-GL-1 (% change)” value ([1]; CSF Concentration, N=10, Patient 5 excluded) was −68% ± 17.2% and the “Lyso-GL-1 concentration, 52-weeks (mean)” value ([1]; CSF, N=10, Patient 5 excluded, Baseline 45.0 pg/mL) was 14.5 pg/mL. For the same molecule, the “Lyso-GL-1 concentration, 52-weeks” value ([1]; CSF, Baseline 34.0 pg/mL) was 17.3 pg/mL, the “increase in plasma lyso-GL1” value ([1]; Patient 5 (reduced Compound 2 exposure), Week 52 compared to baseline) was “about 43%” and the “increase in CSF lyso-GL1” value ([1]; Patient 5 (reduced Compound 2 exposure), Week 52 compared to baseline, imputed with ULOQ) was “about 313%”. The “CSF lyso-GL1 concentration” value ([1]; Patient 5, Week 52, above ULOQ) was greater than 100 pg/mL, the “Lyso-GL-1 (% change)” value ([1]; Plasma Concentration, N = 6, 15 mg/day + imiglucerase) was −56.7% and the “Lyso-GL-1 (% change)” value ([1]; Plasma Concentration, N=10, Patient 5 excluded) was −53% ± 13.5%. The “Lyso-GL-1 concentration, 52-weeks (mean)” value ([1]; Plasma, N=10, Patient 5 excluded, Baseline 27.6 ng/ml) was 13600 pg/mL, the “Lyso-GL-1 concentration, 52-weeks” value ([1]; Plasma, Baseline 29.3 ng/ml) was 15200 pg/mL and the “Change in Correlation Coefficient” value ([2]; Patient 1, RSNs 3 and 6, baseline to 52 weeks) was 0.359. The “Change in Correlation Coefficient” value ([2]; Patient 1, default mode (resting) network vs executive function network, first interim analysis) was “+0.20”, the “Change in Correlation Coefficient” value ([2]; Patient 3, RSNs 3 and 6, baseline to 52 weeks) was 0.383 and the “Change in Correlation Coefficient” value ([2]; Patient 3, default mode (resting) network vs executive function network, first interim analysis) was “+0.20”. The “Change in Correlation Coefficient” value ([2]; Patient 4, RSNs 3 and 6, baseline to 52 weeks) was 0.201, the “Change in Correlation Coefficient” value ([2]; Patient 4, default mode (resting) network vs executive function network, first interim analysis) was “+0.20” and the “Change in Correlation Coefficient” value ([2]; Patient 5 (insufficient Compound 2 exposure), RSNs 3 and 6, baseline to 52 weeks) was −0.173. The “Change in Correlation Coefficient” value ([2]; Patient 5 (likely non-compliance), default mode (resting) network vs executive function network, first interim analysis) was −0.13, the “Change in Correlation Coefficient” value ([2]; Patient 6, RSNs 3 and 6, baseline to 52 weeks) was 0.779 and the “Change in Correlation Coefficient” value ([2]; Patient 6, default mode (resting) network vs executive function network, first interim analysis) was “+0.70”. For the same molecule, the “Change in Correlation Coefficient” value ([2]; Patient 7, RSNs 3 and 6, baseline to 52 weeks) was −0.013, the “Change in Correlation Coefficient” value ([2]; Patient 8, RSNs 3 and 6, baseline to 52 weeks) was −0.058 and the “Change in Correlation Coefficient” value ([2]; Patient 9, RSNs 3 and 6, baseline to 52 weeks) was −0.302. The “Change in Correlation Coefficient” value ([2]; Patient 10, RSNs 3 and 6, baseline to 52 weeks) was 0.105, the “Change in Correlation Coefficient” value ([2]; Patient 11, RSNs 3 and 6, baseline to 52 weeks) was 0.035 and the “connectivity between default mode and medial frontal networks (fMRI)” value ([2]; every subject except Patient 5, first interim analysis) was “enhanced connectivity”. For the same molecule, the “connectivity between RSNs 1, 2 and 3 and RSNs 6, 7 and 8 (fMRI)” value ([2]; patients with sufficient Compound 2 exposure, second interim analysis) was “enhanced connectivity”, the “CL/F, Geometric mean (CV)” value ([3]; 2 mg single dose, N = 6) was 6.3 (22.0) L/h and the “CL/F, Geometric mean (CV)” value ([3]; 5 mg single dose, N = 6) was 5.8 (17.3) L/h. For the same molecule, the “CL/F, Geometric mean (CV)” value ([3]; 15 mg single dose, N = 6) was 5.6 (32.2) L/h, the “CL/F, Geometric mean (CV)” value ([3]; 25 mg single dose, N = 6) was 5.0 (25.3) L/h and the “tmax, median” value ([3]; 25 mg single dose, N = 6) was 5.00 h. The “CL/F, Geometric mean (CV)” value ([3]; 50 mg single dose, N = 6) was 5.5 (34.9) L/h, the “CL/F, Geometric mean (CV)” value ([3]; 100 mg single dose, N = 6) was 5.3 (23.4) L/h and the “tmax, median” value ([3]; 100 mg single dose, N = 6) was 3.00 h. The “CL/F, Geometric mean (CV)” value ([3]; 150 mg single dose, N = 5) was 5.6 (26.7) L/h, the Tmax ([3]; 2 mg single dose) was 3.5 h and the AUC(0-inf) ([3]; 2 mg, 2 mg single dose, N = 6, read-out: AUCinf, Geometric mean (CV)) was 237 ng·h/mL. It also gave an AUC(0-inf) ([3]; 2 mg, 2 mg single dose, N = 6, read-out: AUCinf, Mean (SD)) of 243 ng·h/mL, an AUC(0-t) ([3]; 2 mg, 2 mg single dose, N = 6, read-out: AUClast, Geometric mean (CV)) of 209 ng·h/mL and an AUC(0-t) ([3]; 2 mg, 2 mg single dose, N = 6, read-out: AUClast, Mean (SD)) of 214 ng·h/mL. It also gave a Cmax ([3]; 2 mg, 2 mg single dose, N = 6, read-out: Cmax, Geometric mean (CV)) of 5.6 ng/mL, a Cmax ([3]; 2 mg, 2 mg single dose, N = 6, read-out: Cmax, Mean (SD)) of 5.7 ng/mL and a Vd/F ([3]; 2 mg, 2 mg single dose, N = 6, read-out: Vss/F, Geometric mean (CV)) of 270 L. The Vd/F ([3]; 2 mg, 2 mg single dose, N = 6, read-out: Vss/F, Mean (SD)) was 275 L, the half-life ([3]; 2 mg, 2 mg single dose, N = 6, read-out: t1/2, Geometric mean (CV) (converted)) was 28.9 h and the half-life ([3]; 2 mg, 2 mg single dose, N = 6, read-out: t1/2, Mean (SD) (converted)) was 29.2 h. It also gave a Tmax ([3]; 5 mg single dose) of 5.5 h, an AUC(0-inf) ([3]; 5 mg, 5 mg single dose, N = 6, read-out: AUCinf, Geometric mean (CV)) of 643 ng·h/mL and an AUC(0-inf) ([3]; 5 mg, 5 mg single dose, N = 6, read-out: AUCinf, Mean (SD)) of 652 ng·h/mL. For the same molecule, the AUC(0-t) ([3]; 5 mg, 5 mg single dose, N = 6, read-out: AUClast, Geometric mean (CV)) was 556 ng·h/mL, the AUC(0-t) ([3]; 5 mg, 5 mg single dose, N = 6, read-out: AUClast, Mean (SD)) was 560 ng·h/mL and the Cmax ([3]; 5 mg, 5 mg single dose, N = 6, read-out: Cmax, Geometric mean (CV)) was 14.6 ng/mL. For the same molecule, the Cmax ([3]; 5 mg, 5 mg single dose, N = 6, read-out: Cmax, Mean (SD)) was 14.7 ng/mL, the Vd/F ([3]; 5 mg, 5 mg single dose, N = 6, read-out: Vss/F, Geometric mean (CV)) was 273 L and the Vd/F ([3]; 5 mg, 5 mg single dose, N = 6, read-out: Vss/F, Mean (SD)) was 274 L.
